Earlier results as cited in patent publication US6660287B1, “Prevention of spoilage of produce using acidified expanded amorphous aluminum silicate impregnated with chlorite” (Bio-Cide International, Inc., priority 1999, dated 2003).

Tested on: mice

SMILES | chromosomal aberrations or increased numbers of micronuclei in the bone marrow (subchronic and acute oral administration, mice (Meier et al.)) | mutagenic potential (mouse, in vivo, po)
[O][Cl+][O-] [chlorine dioxide] | failed to induce any chromosomal aberrations or increased numbers of micronuclei | 
OCl [hypochlorite] |  | weak positive effect
